{
  "source": "patent US11579149B2",
  "about": "“Hippo pathway bioluminescent biosensor” (Queen's University at Kingston, priority 2017, dated 2023)",
  "key": {"LATS kinase activity [1]": {"test_system": "LATS kinase activity", "assay": "LATS-BS under stimuli regulating Hippo signaling (in vitro luciferase assay and live cell luciferase imaging)", "type": "cell-based, human", "settings": "cell lysates (luciferase assay) and live cells (BLI)", "description": "For live cell imaging, LATS-BS or a pGL3-control vector were transfected into HEK293, MDA-MB-231 or A549 cells. After 48 hours, cells were trypsinized and collected in a black, clear bottomed, 96-well plate. 150 μg/mL D-luciferin (D-Luciferin, Potassium Salt, GoldBio #LUCK-250) in media was added to each well 5-10 min before imaging. Exposure time for images was approximately 3 min/plate. Imaging was performed using a LightTools Research system (Synopsys, Ltd., Mountain View, Calif., USA) dark box and a Hamamatsu ORCA-Flash4.0 V2 digital CMOS camera over the course of 20 minutes to establish optimal peak luciferase activity. The bioluminescence of the regions of interest was analyzed for total emission flux using Image-Pro® Plus software (Media Cybernetics, Inc., Rockville, Md., USA).\nExperiments were conducted to further validate the LATS intermolecular biosensor and explore potential applications for its use. The LATS-BS responded to numerous signals reported to modulate Hippo pathway activity, including cell confluency, drugs activating Hippo signaling (Forskolin, PI3K inhibitor, PDK inhibitor, F-IBMX, and 2-deoxy-glucose) and Hippo signaling inhibitors (LPA, EGF, Insulin, S1P, and TPA). The LATS-BS is activated by LATS in various cell lines (e.g., A549, MDA-MB231).\nThe following compound treatments were used for in vitro luciferase assay and live cells imaging: RAF inhibitor (GW5054, Cayman Chemical, Ann Arbor, Mich., USA), ATR inhibitor (CGK733, Cayman Chemical), PI3K inhibitor 1 (GDC0941, Cayman Chemical), PI3K inhibitor 2 (LY294002, Cayman Chemical), PDK inhibitor (GSK2334470, Cayman Chemical)—10 μM for 4 hours; EGF-100 ng/mL for 1 hour; insulin (Sigma #91077C)—10 μg/ml for 1 hour, F/IBMX (Forskolin, Cayman Chemical/IBMX, Cayman Chemical)—0.1-10 μM for Forskolin and 100 μM for IBMX for 1 hour; L-α-lysophosphatidic acid (LPA) (Sigma #L7260)—0.1-10 μM for 1 hour, sphingosine1-phosphophate (S1P)—1 μM for 1 hour; 12-O-tetradecanoylphorbol-13-acetate (TPA) (#41745; Cell Signaling Technology, Inc., Danvers, Mass., USA)—5 nM for 1 hour; 2-deoxy glucose (#D8375, Sigma-Aldrich Canada Co., Oakville, Ontario, Canada)—25 mM for 1 hour."}, "LATS kinase activity [2]": {"test_system": "LATS kinase activity", "assay": "LATS-BS validation in transfected HEK293 cells (luciferase assay / western blot)", "type": "cell-based, human", "settings": "HEK293 co-transfected with LATS-BS and MST2, 10 μM LPA for 1 hour before collection", "description": "In a validation study, LATS-BS was transfected alone or together with LATS2 or/and MST2 into HEK293 cells and biosensor activity or NLuc-YAP15-S127 phosphorylation status were determined 48 hours after transfection by luciferase assay or western blot, respectively. As depicted in FIG. 2C, HEK293 cells transfected with LATS-BS alone had low luciferase activity and this was correlated with a low degree of Nluc-YAP15-S127 phosphorylation. Co-transfection of LATS-BS with MST2 was associated with increases in both Nluc-YAP-S127 phosphorylation and luciferase activity, and this effect was suppressed with lysophosphatidic acid (LPA), an inhibitor of the Hippo pathway. For lysophosphatidic acid (LPA) treatment, cells were stimulated with 10 μM LPA for 1 hour before collection (n=3). LATS-BS co-expression with both MST2 and LATS2 was correlated with further increases in Nluc-YAP15-S127 phosphorylation and luciferase activity. Collectively, these observations are consistent with a model where MST2 activates LATS2, which phosphorylates Nluc-YAP15-S127, leading to binding with Cluc-14-3-3 and reconstitution of active luciferase."}},
  "data": [
    {"molecule": "O=CC[C@@H](O)[C@H](O)[C@H](O)CO", "note": "[2-deoxy-glucose, 2-deoxy glucose]", "values": [
      {"measurement": "LATS-BS response to signals modulating Hippo pathway activity", "setting": "LATS kinase activity [1]", "value": "responded"}
    ]},
    {"molecule": "CNc1nc(-c2ccc3c(N)n[nH]c3c2)cc(N2C[C@@H](C(=O)NC3CCCCC3)CC[C@H]2C)n1", "note": "[PDK inhibitor]", "values": [
      {"measurement": "LATS-BS response to signals modulating Hippo pathway activity", "setting": "LATS kinase activity [1]", "value": "responded"}
    ]},
    {"molecule": "CCCCCCCCCCCCC/C=C/[C@@H](O)[C@@H](N)COP(=O)(O)O", "note": "[S1P, sphingosine1-phosphophate]", "values": [
      {"measurement": "LATS-BS response to signals modulating Hippo pathway activity", "setting": "LATS kinase activity [1]", "value": "responded"}
    ]},
    {"molecule": "CCCCCCCCCCCCCC(=O)O[C@@H]1[C@@H](C)[C@@]2(O)[C@@H](C=C(CO)C[C@]3(O)C(=O)C(C)=C[C@@H]23)[C@@H]2C(C)(C)[C@]12OC(C)=O", "note": "[TPA, 12-O-tetradecanoylphorbol-13-acetate]", "values": [
      {"measurement": "LATS-BS response to signals modulating Hippo pathway activity", "setting": "LATS kinase activity [1]", "value": "responded"}
    ]},
    {"molecule": "EGF: Hippo signaling inhibitor", "values": [
      {"measurement": "LATS-BS response to signals modulating Hippo pathway activity", "setting": "LATS kinase activity [1]", "value": "responded"}
    ]},
    {"molecule": "Insulin: Hippo signaling inhibitor (Sigma #91077C)", "values": [
      {"measurement": "LATS-BS response to signals modulating Hippo pathway activity", "setting": "LATS kinase activity [1]", "value": "responded"}
    ]},
    {"molecule": "L-α-lysophosphatidic acid [LPA]", "values": [
      {"measurement": "Nluc-YAP-S127 phosphorylation (western blot)", "setting": "LATS kinase activity [2]", "value": "suppressed"},
      {"measurement": "LATS-BS luciferase activity", "setting": "LATS kinase activity [2]; n=3", "value": "suppressed"},
      {"measurement": "LATS-BS response to signals modulating Hippo pathway activity", "setting": "LATS kinase activity [1]", "value": "responded"}
    ]}
  ]
}
